Experimental data: patent US10175256B2, “Compositions and methods utilizing lysophosphatidylcholine scaffolds” (National University Of Singapore, priority 2013, dated 2019)
“And” between values parts separate entries of the source, which are not always exact repeats. Equal entries are not always repeated.

Experiments:
mouse Mfsd2a [1] = target: T1, mouse Mfsd2a (Mus musculus, UniProt Q9DA75); test: Cell-based free fatty acid transport/uptake in Mfsd2a expressing HEK293 cells (mass spectrometry, TLC; Table 1); settings: replicate columns; for Amount of lipid species, mol percent in total phospholipid analysed / Amount of each lipid species normalized to internal standard, mol percent in total phospholipid analysed: Mfsd2a expressing HEK293 cells
T1 construct: expressed in transfected cells; host or cells: HEK293
T1 sequence (Q9DA75 1-534): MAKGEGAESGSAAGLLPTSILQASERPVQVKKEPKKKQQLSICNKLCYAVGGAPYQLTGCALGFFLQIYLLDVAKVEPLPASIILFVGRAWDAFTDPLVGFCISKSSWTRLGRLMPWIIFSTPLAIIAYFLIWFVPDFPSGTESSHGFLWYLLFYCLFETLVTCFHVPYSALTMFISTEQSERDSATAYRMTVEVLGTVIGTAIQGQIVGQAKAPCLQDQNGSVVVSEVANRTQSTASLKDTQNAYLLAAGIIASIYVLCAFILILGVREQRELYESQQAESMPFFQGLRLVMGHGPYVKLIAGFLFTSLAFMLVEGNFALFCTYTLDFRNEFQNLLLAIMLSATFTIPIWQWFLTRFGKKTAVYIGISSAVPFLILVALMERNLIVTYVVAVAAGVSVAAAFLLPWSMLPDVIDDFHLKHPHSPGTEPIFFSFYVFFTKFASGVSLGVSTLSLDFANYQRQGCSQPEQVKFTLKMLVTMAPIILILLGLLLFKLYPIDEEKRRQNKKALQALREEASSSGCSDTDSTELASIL
Description: (§1) FIG. 12. […] Std: free [^14C]-DHA. b. TLC analysis of phospholipids and neutral lipids of HEK293 cells transfected with mouse Mfsd2a and mutants after overnight incubation with 100 μM [^14C]-oleate. TLC protocol used was described in Methods. PC: phosphatidylcholine, PE: phosphatidylethanolamine, TAG: triglyceride, CE: cholesteryl ester.
(§2) For tissue lipid analysis, brain, liver, and heart of female WT and KO mice with age of 7-8 weeks born to HET mothers, and brains from e18.5 embryos were collected and immediately frozen with liquid nitrogen until extraction. Lipid extraction was followed by chloroform/methanol method. For cell-based free fatty acid transport, lipids from HEK293 cells expressing mouse Mfsd2a and mock controls after overnight treatment with 100 μM docosahexaenoic, arachidonic, eicosapentaenoic, alpha-linolenic, linoleic, oleic, palmitic acids in BSA complex were extracted using HIP buffer (hexane:iso-propanol 3:2, per volume) and dried under N2 gas. Phospholipid species were measured by high performance liquid chromatography (HPLC) 1100 system (Agilent) coupled with an Triple Quadrupole/Ion Trap mass spectrometer (4000Qtrap, Applied Biosystem). Levels of individual phospholipid species were analyzed as described previously and quantified using spiked internal standards that includes PC-14:0/14:0, PE-14:0/14:0, PS-14:0/14:0 (Avanti Polar Lipids, Alabaster, Ala., USA), and dioctanoyl PI (Echelon Biosciences, Inc., Salt Lake City, Utah, USA).

mouse Mfsd2a [2] = test: as above; settings: MS, replicate columns; for Amount of each lipid species normalized to internal standard, mol percent in total phospholipid analysed / Amount of lipid species, mol percent in total phospholipid analysed: mock HEK293 cells
Description: as §1, §2

[3] = Mfsd2a expressing HEK293 cells incubated with 100 uM Arachidonic fatty acid/BSA complex overnight, MS
[4] = 100 uM Alpha-linolenic fatty acid/BSA complex overnight
[5] = 100 uM Docosahexaenoic acid/BSA complex overnight, MS
[6] = 100 uM Oleic fatty acid/BSA complex overnight, MS
[7] = mock HEK293 cells incubated with 100 uM Arachidonic fatty acid/BSA complex overnight
[8] = 100 uM Docosahexaenoic acid/BSA complex overnight
[9] = 100 uM Linoleic fatty acid/BSA complex overnight
[10] = 100 uM Oleic fatty acid/BSA complex overnight
[11] = 100 uM Eicosapentaenoic acid/BSA complex overnight, MS
[12] = 100 uM Eicosapentaenoic acid/BSA complex overnight

Compound | Amount of each lipid species, mol percent in total phospholipid analysed (mouse Mfsd2a [1]; [3]) | Amount of each lipid species, mol percent in total phospholipid analysed (mouse Mfsd2a [1]; Mfsd2a expressing HEK293 cells incubated with 100 uM Eicosapentaenoic fatty acid/BSA complex overnight, MS) | Amount of lipid species, mol percent in total phospholipid analysed (mouse Mfsd2a [1]; [4]) | Amount of each lipid species normalized to internal standard, mol percent in total phospholipid analysed (mouse Mfsd2a [1]; [5]) | Amount of lipid species, mol percent in total phospholipid analysed (mouse Mfsd2a [1]; 100 uM Linoleic fatty acid/BSA complex overnight, MS) | Amount of lipid species, mol percent in total phospholipid analysed (mouse Mfsd2a [1]; [6]) | Amount of each lipid species, mol percent in total phospholipid analysed (mouse Mfsd2a [2]; [7]) | Amount of each lipid species, mol percent in total phospholipid analysed (mouse Mfsd2a [2]; mock HEK293 cells incubated with 100 uM Eicosapentaenoic fatty acid/BSA complex overnight) | Amount of each lipid species normalized to internal standard, mol percent in total phospholipid analysed (mouse Mfsd2a [2]; [8]) | Amount of lipid species, mol percent in total phospholipid analysed (mouse Mfsd2a [2]; [9]) | Amount of lipid species, mol percent in total phospholipid analysed (mouse Mfsd2a [2]; [10]) | Amount of lipid species, mol percent in total phospholipid analysed (mouse Mfsd2a [1]; [9]) | Amount of each lipid species normalized to internal standard, mol percent in total phospholipid analysed (mouse Mfsd2a [1]; [11]) | Amount of each lipid species normalized to internal standard, mol percent in total phospholipid analysed (mouse Mfsd2a [2]; [12])
PE38:5 | 1.517 mol percent and 1.746 mol percent and 1.538 mol percent and 1.292 mol percent | 0.8525 mol percent and 0.7862 mol percent and 1.249 mol percent and 0.8033 mol percent | 2.013 mol percent and 1.902 mol percent and 1.704 mol percent and 1.689 mol percent | 0.6996 mol percent and 0.7565 mol percent and 0.8996 mol percent and 0.9147 mol percent | 0.714 mol percent and 1.007 mol percent and 0.7471 mol percent and 0.7035 mol percent | 0.6441 mol percent and 0.6477 mol percent and 0.57 mol percent and 0.5862 mol percent | 1.648 mol percent and 1.509 mol percent and 1.4 mol percent | 1.214 mol percent and 0.8982 mol percent and 0.9456 mol percent | 0.6844 mol percent and 0.8632 mol percent and 0.5129 mol percent | 0.9188 mol percent and 0.8836 mol percent and 0.7914 mol percent | 0.809 mol percent and 0.6822 mol percent and 0.456 mol percent | – | – | –
CCCCCCCCCCCCCC/C=C\OC[C@@H](O)COP(=O)(O)OCCN [LysoPE16:0p] | 2.79 mol percent and 2.681 mol percent and 2.307 mol percent and 2.64 mol percent | – | – | – | – | – | 3.439 mol percent and 2.895 mol percent and 2.928 mol percent | – | – | – | – | – | – | –
CCCCCCCCCCCCCCCC(=O)OC[C@@H](O)COP(=O)([O-])OCC[N+](C)(C)C [LysoPC16:0] | 0.02415 mol percent and 0.0241 mol percent and 0.02855 mol percent and 0.02172 mol percent | – | 0.02586 mol percent and 0.02533 mol percent and 0.02841 mol percent and 0.02293 mol percent | 0.03726 mol percent and 0.03481 mol percent and 0.03081 mol percent and 0.02684 mol percent | – | 0.01777 mol percent and 0.01495 mol percent and 0.01595 mol percent and 0.01964 mol percent | 0.02322 mol percent and 0.02517 mol percent and 0.02807 mol percent | – | 0.03115 mol percent and 0.02846 mol percent and 0.03055 mol percent | – | 0.01539 mol percent and 0.01577 mol percent and 0.0163 mol percent | 0.02176 mol percent and 0.01959 mol percent and 0.02134 mol percent and 0.02259 mol percent | 0.02694 mol percent and 0.02534 mol percent and 0.02456 mol percent and 0.02331 mol percent | 0.02508 mol percent and 0.02349 mol percent and 0.02482 mol percent
CCCCCCCCCCCCCCCCCC(=O)OC[C@@H](O)COP(=O)(O)OCCN [LysoPE18:0] | 0.2569 mol percent and 0.2304 mol percent and 0.2461 mol percent and 0.117 mol percent | – | 0.3947 mol percent and 0.2832 mol percent and 0.2186 mol percent and 0.3429 mol percent | 0.1666 mol percent and 0.2308 mol percent (2×) and 0.1334 mol percent | – | 0.09201 mol percent and 0.1193 mol percent and 0.148 mol percent and 0.05384 mol percent | 0.1798 mol percent and 0.2163 mol percent and 0.1654 mol percent | – | 0.2527 mol percent and 0.249 mol percent and 0.1539 mol percent | – | 0.168 mol percent and 0.1023 mol percent and 0.04024 mol percent | 0.1058 mol percent and 0.1018 mol percent and 0.1894 mol percent and 0.0869 mol percent | 0.1092 mol percent and 0.307 mol percent and 0.1931 mol percent and 0.2135 mol percent | 0.2356 mol percent and 0.2515 mol percent and 0.1233 mol percent
CCCCCCCCCCCCCCCCOC[C@@H](O)COP(=O)([O-])OCC[N+](C)(C)C [LysoPC16:0e] | 0.008218 mol percent and 0.00827 mol percent and 0.009441 mol percent and 0.01026 mol percent | – | 0.004349 mol percent and 0.003802 mol percent and 0.005532 mol percent and 0.004823 mol percent | 0.005111 mol percent and 0.004575 mol percent and 0.004499 mol percent and 0.004664 mol percent | – | 0.002972 mol percent and 0.00261 mol percent and 0.002228 mol percent and 0.001403 mol percent | 0.008219 mol percent and 0.01198 mol percent and 0.009457 mol percent | – | 0.005025 mol percent and 0.003881 mol percent and 0.00548 mol percent | – | 0.003153 mol percent and 0.001998 mol percent and 0.003294 mol percent | 0.004905 mol percent and 0.004227 mol percent and 0.005291 mol percent and 0.006453 mol percent | 0.005369 mol percent and 0.005332 mol percent and 0.003584 mol percent and 0.004376 mol percent | 0.00417 mol percent and 0.00451 mol percent and 0.003651 mol percent
CCCCCCCCCCCCCCCC(=O)OC[C@@H](O)COP(=O)(O)OC1[C@H](O)[C@H](O)C(O)[C@H](O)[C@H]1O (some centres unmarked) [LPI 16:0] | 0.003583 mol percent and 0.003359 mol percent and 0.003156 mol percent and 0.002319 mol percent | – | – | – | – | – | 0.003611 mol percent and 0.003895 mol percent and 0.00338 mol percent | – | – | – | – | – | – | –
CCCCCCCCCCCCCCCCCC/C=C\OC[C@@H](O)COP(=O)(O)OCCN [Lyso PE20:0p] | – | – | 0.4144 mol percent and 0.2832 mol percent and 0.3195 mol percent and 0.1905 mol percent | 0.1999 mol percent and 0.2885 mol percent and 0.2131 mol percent and 0.1906 mol percent | – | 0.184 mol percent and 0.3068 mol percent and 0.1973 mol percent and 0.2871 mol percent | – | – | 0.1737 mol percent and 0.2656 mol percent and 0.1958 mol percent | – | 0.1867 mol percent and 0.2217 mol percent and 0.228 mol percent | 0.1851 mol percent and 0.2714 mol percent and 0.2999 mol percent and 0.1862 mol percent | 0.1715 mol percent and 0.2585 mol percent and 0.309 mol percent and 0.2898 mol percent | 0.4498 mol percent and 0.1976 mol percent and 0.1696 mol percent
